Test results published in patent US20100297109A1, “METHODS FOR INHIBITING FASCIN” (Cornell University, priority 2007, published 2010).

How the values were obtained:
fascin = fascin (Homo sapiens, UniProt Q16658); assay type: biochemical; design: GST (N); made in house; host or cells: Escherichia coli BL21; settings: fluorescence microscopy
Experimental: Whole cell lysates from 4T1 mouse breast tumor cells were made. After preclearing the cell lysate with immobilized neutravidin biotin binding protein (Pierce, IL, USA) to remove biotin and avidin-binding proteins, the cell lysates were loaded to a column packed with the biotin-labeled macroketone (conjugated to neutravidin beads). A control column packed with free biotin and neutravidin beads was run side-by-side. After washing the column with 10 bed volumes of lysis buffer with 300 mM NaCl, the bound proteins were eluted with 0.1 M Glycine-HCl at pH 2.8 according to the manufacturer's instruction. […] Protein Expression and Purification. Recombinant GST-fascin fusion protein was produced in BL21 Escherichia coli. A 1-liter culture was grown to an A600 reading of 1.0 and then induced by addition of 0.3 mM isopropyl 1-thio-D-galactopyranoside (IPTG) for 12 hours at 25° C. Cells were flash frozen and then lysed by sonication in Tris-buffered saline. The supernatant was then incubated with glutathione-Sepharose for 2 h at 4° C. After extensive washing, GST-fascin was eluted and concentrated with a Centricon Plus-20 (Millipore). To remove the GST tag from the fusion protein, beads were incubated with thrombin overnight at 4° C. The supernatant was collected and concentrated. […] Actin bundling activity was measured by low speed centrifugation assay and fluorescence microscopy. […]

[1] = target: T1, fascin His474 to Ala mutant (Homo sapiens, UniProt Q16658, H474A); assay: Actin bundling assay with fascin H474A mutant; assay type: biochemical
T1 construct: GST (N, cleaved yes); made in house; host or cells: Escherichia coli BL21 (pGEX4T-Fascin1)
From the text: Identification of fascin as the protein target of migrastatin analogs. Whole cell lysates from 4T1 mouse breast tumor cells were made. After preclearing the cell lysate with immobilized neutravidin biotin binding protein (Pierce, IL, USA) to remove biotin and avidin-binding proteins, the cell lysates were loaded to a column packed with the biotin-labeled macroketone (conjugated to neutravidin beads). A control column packed with free biotin and neutravidin beads was run side-by-side. After washing the column with 10 bed volumes of lysis buffer with 300 mM NaCl, the bound proteins were eluted with 0.1 M Glycine-HCl at pH 2.8 according to the manufacturer's instruction. […] A 1-liter culture was grown to an A600 reading of 1.0 and then induced by addition of 0.3 mM isopropyl 1-thio-D-galactopyranoside (IPTG) for 12 hours at 25° C. […] Actin bundling activity was measured by low speed centrifugation assay and fluorescence microscopy. […] Both supernatants and pellets were dissolved in an equivalent volume of SDS sample buffer, and the amount of actin was determined by SDS-PAGE. For fluorescence microscopy, monomeric G-actin was polymerized as described above. […] The samples were mounted between a slide and a coverslip coated with poly-lysine and imaged by fluorescence microscopy. […] Both supernatants and pellets were dissolved in an equivalent volume of SDS sample buffer and analyzed by SDS-PAGE. […]

SMILES: COC1C=CCCCCC(=O)CCC(C)=CC(C)C1O (stereo not drawn) [macroketone, Migrastatin ketone]
- inhibition of formation of F-actin bundles (fascin; fascin present): > 80%
- ability of fascin to bundle actin polymers (fascin; preincubation of fascin): decreased the ability of fascin to bundle actin polymers
- sensitivity of actin bundling activity of fascin mutant [1]: resistant
